In brackets after ≈: the same amount, converted by molar mass.
Experiments:
[1] = Solubility in water; format: physicochemical; settings: at 21° C.
Excerpt: For treating disorders of the skin it Is desirable to provide the active pharmaceutical ingredient in a pharmaceutical preparation suitable for topical application.

[2] = Kinetic parameters after oral administration (comparison); format: in vivo, rat
Description: Comparison with kinetic parameters after oral administration of 1 mg/kg: […]

O=C(Nc1c(Cl)cncc1Cl)c1ccc(OC(F)F)c(OCC2CC2)c1 [roflumilast, N-(3,5-dichloropyrid-4-yl)-3-cyclopropylmethoxy-4-difluoromethoxybenzamide]
solubility [1]: 0.53 µg/mL (≈ 1.31 µM)
excretion with the urine ([2]; oral administration): 18.4 % of the dose
AUC(0-24 h) ([2]; oral administration of 1 mg/kg): 3.10 mg equiv./l×h
Cmax ([2]; oral administration of 1 mg/kg): 0.225 mg equiv./l

From patent US20060084684A1, “Topically applicable pharmaceutical preparation” (Altana Pharma AG, priority 2002, published 2006)
